Legend:
[1] = molecular target: T1, recombinant human estradiol receptors (rhER) alpha (α) (Homo sapiens, UniProt P03372); experiment: in vitro competitive binding assay, displacement of [3H]estradiol from rhER alpha; settings: running text, highest concentration 2.5×E−4 M
T1 sequence (P03372 1-595): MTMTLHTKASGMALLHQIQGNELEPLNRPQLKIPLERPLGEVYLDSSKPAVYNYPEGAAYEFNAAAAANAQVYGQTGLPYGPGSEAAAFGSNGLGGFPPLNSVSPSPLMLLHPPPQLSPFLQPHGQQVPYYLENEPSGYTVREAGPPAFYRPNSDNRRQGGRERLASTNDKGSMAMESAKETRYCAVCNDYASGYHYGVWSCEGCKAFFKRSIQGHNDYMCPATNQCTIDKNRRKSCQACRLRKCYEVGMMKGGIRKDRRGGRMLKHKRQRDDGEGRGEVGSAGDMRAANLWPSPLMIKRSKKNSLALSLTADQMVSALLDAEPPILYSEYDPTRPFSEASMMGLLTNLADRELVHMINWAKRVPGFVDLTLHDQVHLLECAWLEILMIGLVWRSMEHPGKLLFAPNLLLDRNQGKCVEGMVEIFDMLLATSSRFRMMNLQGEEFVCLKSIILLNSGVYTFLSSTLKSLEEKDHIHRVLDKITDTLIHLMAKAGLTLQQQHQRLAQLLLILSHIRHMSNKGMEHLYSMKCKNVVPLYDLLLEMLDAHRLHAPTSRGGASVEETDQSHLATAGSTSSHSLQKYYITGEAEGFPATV

[2] = molecular target: recombinant human estradiol receptors (rhER) beta 1 (β1) (Homo sapiens, UniProt Q92731); experiment: in vitro competitive binding assay, displacement of [3H]estradiol from rhER beta 1; settings: highest concentration 2.5×E−4 M

Row | estradiol binding / displacement at the beta estradiol receptor (in words) ([2]; running text) | Compound | estradiol binding / displacement at the alpha estradiol receptor (in words) [1] | other results
1 | displace estradiol | COC(=O)CCC(C)(c1ccc(O)cc1)c1ccc(O)cc1 [F, Diphenolic Acid Methyl Ester, reference compound] | displace estradiol | –
2 | no detectible estradiol displacement | Tetra Methyl BPA [Example 2] | – | estradiol binding / displacement at the beta estradiol receptor (in words) ([2]; listed as tetra methyl bisphenol-A): no estradiol binding
3 | displace estradiol at low concentrations | Bis Hydroxy Phenyl Menthane [reference compound] | displace estradiol at low concentrations | –
4 | no alpha or beta estradiol displacement | Cc1cc(O)ccc1O [Example 9, Methyl Hydroquinone] | – | estradiol binding / displacement at the beta estradiol receptor (in words) ([2]; running text, listed as methyl hydroquinone): no estradiol binding
5 | – | CC(c1ccccc1)(c1ccc(O)cc1)c1ccc(O)cc1 [D, Bisphenol Acetophenone, reference compound] | displace estradiol | –
6 | displace estradiol | Oc1ccc(Oc2ccc(O)cc2)cc1 [C, Dihydroxy Diphenyl Ether, reference compound] | – | –
7 | displacement of estradiol | Cc1cc(C2(c3ccc(O)c(C)c3)CCCCC2)ccc1O [H, Dimethyl Cyclohexyl Bisphenol, reference compound] | displacement of estradiol | –
8 | no detectible estradiol displacement | O=C1c2ccccc2C(c2ccc(O)cc2)(c2ccc(O)cc2)N1c1ccccc1 [Example 4, N-Phenyl Phenolphthalein Bisphenol] | no detectible estradiol displacement | estradiol binding / displacement at the alpha estradiol receptor (in words) ([1]; listed as N-phenyl phenolphthalein bisphenol): no estradiol binding; estradiol binding / displacement at the beta estradiol receptor (in words) ([2]; running text, listed as N-phenyl phenolphthalein bisphenol): no estradiol binding

Row | Compound | estradiol binding / displacement at the beta estradiol receptor (in words) ([2]; running text) | estradiol binding / displacement at the alpha estradiol receptor (in words) [1] | other results
9 | Oc1cccc(O)c1 [Example 5, Resorcinol] | no detectible estradiol displacement | no detectible estradiol displacement | estradiol binding / displacement at the alpha estradiol receptor (in words) ([1]; listed as resorcinol): no estradiol binding; estradiol binding / displacement at the beta estradiol receptor (in words) ([2]; running text, listed as resorcinol): no estradiol binding
10 | Biphenol [Example 7] | no estradiol binding | no displacement | estradiol binding / displacement at the alpha estradiol receptor (in words) ([1]; listed as biphenol): no estradiol binding
11 | Fluorenone Bis o-Cresol [J, reference compound] | displace estradiol at low concentrations | – | –
12 | CC(C)(c1ccccc1)c1ccc(O)cc1 [B, p-Cumyl Phenol, reference compound] | displace estradiol | displace estradiol | –
13 | CC(C)(c1ccc(O)cc1)c1cccc(C(C)(C)c2ccc(O)cc2)c1 [L, Bisphenol M, reference compound] | displace estradiol at low concentrations | displace estradiol at low concentrations | –
14 | O=C1OC(c2ccc(O)cc2)(c2ccc(O)cc2)c2ccccc21 [P, Phenolphthalein, reference compound] | estradiol displacement at low concentration | – | –

From patent publication US8669315B2, “Polycarbonate compositions and methods for the manufacture and use thereof” (SABIC Innovative Plastics IP B.V., priority 2011, dated 2014)
